Assay results taken from PubChem BioAssay AID2305 (GlaxoSmithKline (GSK), 2010).
Where “and” joins values, the source holds several entries; their conditions need not be identical. Identical values can stand only once.

Each compound was assayed on P. falciparum 3D7 growth, pLDH absorbance (assay: blood-stage malaria parasite growth potency – strain 3D7, dose response (AID 2305)).

Structure (SMILES) | IC50
Cc1cc(-c2nc3ccc(C(=N)N)cc3[nH]2)c(C)cc1-c1nc2ccc(C(=N)N)cc2[nH]1 | 400 nM
Cc1ccc(NC(=O)Nc2ccc(S(=O)(=O)c3ccc(NC(=O)Nc4ccc(C)c(Cl)c4)cc3)cc2)cc1Cl | 750 nM
C=C(NC(=O)C1CCCCC1)C(=O)OC | 850 nM
Cc1nn(-c2ccccc2)c2sc(C(=O)N(CCCN(C)C)c3nc(-c4ccccc4)cs3)cc12 | 980 nM
CC(C)NCc1ccc(-c2ccc(CN3CCCC(c4ccccc4)C3)cc2)c(C(=O)NC2Cc3ccccc3C2)c1 (stereo not given) | 990 nM
NC(=S)Cc1ccc2c(c1)OCO2 | 280 nM
CCNc1cc(C(=O)N[C@@H](Cc2ccccc2)[C@H](O)CNC(C)(C)Cc2cccc(OC)c2)cc(N2CCCC2=O)c1 | 710 nM
N#Cc1ccc(OCCN(Cc2ccccc2C(F)(F)F)c2ccc(C#N)c(C(F)(F)F)c2)cc1 | 280 nM
Oc1ccccc1CN[C@@H]1CCCC[C@H]1NCc1ccccc1O | 950 nM
Oc1ccc(CCNc2nc(NCCOc3cccc4ccccc34)nc(N3CCNCC3)n2)cc1 | 900 nM
O=C(Nc1ccncc1)Nc1ccc2c(c1)CCN(C1CCC1)CC2 | 1130 nM
CN1CCC(Oc2ccc(CN3CC[C@H](NC(=O)c4ccc(Cl)c(Cl)c4)C3)c3ccccc23)C1 (stereo not given in full) | 880 nM
O=C(c1cc2cccc([N+](=O)[O-])c2[nH]1)N1CCC(CCN2CCC(c3c[nH]c4ccccc34)CC2)CC1 | 940 nM
COc1ccc(OC)c(-c2cccc(-c3cccc(NC(=O)c4ccc([N+](=O)[O-])o4)c3)n2)c1 | 370 nM
COc1ccc2nccc(N3CCC(SCCNS(=O)(=O)c4ccc5c(c4)OCCO5)C3)c2n1 (stereo not given) | 980 nM
Cc1cc(N(C)C)nc(Nc2ccc(NC(=O)Nc3ccccc3)cc2)n1 | 130 nM
C[C@H](Nc1nc(C(Oc2ccccc2)c2ccccc2)nc2[nH]ncc12)c1ccccc1 (stereo not given in full) | 480 nM
CC(C)Oc1ccccc1-c1csc(C(=O)NCC2CCN(Cc3ccc(C(C)(C)C)cc3)C2)c1 (stereo not given) | 1070 nM
N#Cc1cccc(C(=O)Nc2cccc(-c3ccc(C(=O)Nc4cccnc4)cc3)c2)c1 | 690 nM
O=C(Nc1ccc(-c2ccc(-c3nc4ccc(C(F)(F)F)cc4[nH]3)s2)cc1)c1cnc[nH]1 | 670 nM
CN(C)c1cccc2c1nc(-c1ccco1)n2CCNCc1ccccc1 | 810 nM
CC(C)CN(C)Cc1ccc(-c2ccc(-c3nc4ccccc4[nH]3)s2)cc1 | 750 nM
CN(C)CCCNCc1cn(S(=O)(=O)c2ccccc2Cl)c2ccccc12 | 1070 nM
Cc1nnc2c(NC(=O)NC3CCCC3)cc3ccc(-c4cccc(CN(C)C)c4)cc3n12 | 1160 nM

Structure (SMILES) | IC50
CN1CCN(c2cccc(-c3nnc(-c4ccc(OCC(=O)NCc5cccc(C(F)(F)F)c5)c([N+](=O)[O-])c4)o3)c2)CC1 | 960 nM
CN(C)C(=O)CN1CCN(c2ncnc(N3CCc4c([nH]c5ccccc45)[C@@H]3c3ccc4c(c3)CCO4)n2)CC1 | 870 nM
O=C(/C=C/c1ccc(Cl)cc1)NCCCCCN1CCCN(C(=O)Nc2cccc(Cl)c2)CC1 | 1000 nM
COc1ccc(-c2ccccc2)cc1NC(=S)NC1CCC(CN2CCC(c3c[nH]c4ccccc34)CC2)CC1 (stereo not given) | 650 nM and 740 nM
CN(C)CCOc1ccc2c(c1)CN(C)CC2c1ccccc1 (stereo not given) | 1110 nM
O=C1c2ccccc2CN1CCCN1CCC(Oc2ccc(F)cc2)CC1 | 1210 nM
O=C1CCCN1CCCNCc1ccc(-c2ccc(-c3nc4ccc(F)cc4[nH]3)cc2)cc1 | 600 nM
O=C(Nc1ccc(F)cc1F)NC1CCN(c2ccnc3cc(Cl)ccc23)C1 (stereo not given) | 250 nM
CCOC(=O)[C@H](Cc1cc([N+](=O)[O-])c(Oc2ccc(OC)c(Cc3ccc(OC)c(C(C)C)c3)c2)c([N+](=O)[O-])c1)NC(=O)C(F)(F)F | 980 nM
FC(F)(F)c1ccc(N2CCCN(Cc3cccc(-c4ccccc4CNCc4ccc5c(c4)OCO5)c3)CC2)nc1 | 1190 nM
O=C(NCCNc1nc(NCCNC(=O)Nc2ccccc2)c2ccc(=O)n(-c3c(F)cccc3F)c2n1)Nc1ccccc1 | 170 nM
COc1ccc(C=NNc2cc(C)nc3ccc(OC)cc23)c(OC)c1 | 780 nM
CCN(CC)CCN(Cc1ccc(-c2ccc(C(F)(F)F)cc2)cc1)C(=O)Cn1c(CCc2ccc(F)c(F)c2F)nc(=O)c2ccc(F)cc21 | 740 nM
O=C(Nc1ccc(OC2CCN(Cc3ccc(F)cc3)CC2)cc1)c1cccs1 | 970 nM
COc1cc(Nc2nccc(Nc3ccc4c(C)[nH]nc4c3)n2)cc2ccccc12 | 700 nM
FC(F)(F)c1ccc2nccc(NN=Cc3ccccc3Cl)c2c1 | 800 nM
Cc1csc(-c2ncc(OC[C@@H](N)Cc3ccccc3)cc2-c2ccc3n[nH]c(C)c3c2)c1 | 840 nM
CC(C)N1CCN(c2ccc(OCCCCN3CCN(c4cccc(Cl)c4Cl)CC3)c(C(F)(F)F)c2)CC1 | 820 nM
Cn1cncc1-c1cc2c(Nc3ccc(OCc4ccccc4)cc3)ncnc2cn1 | 270 nM
CCc1nc(N)nc(N)c1-c1ccc(C(C)(C)C)cc1 | 230 nM
COc1cc(-c2nc3ccc(N4CCN(C)CC4)cc3[nH]2)cc(OC)c1OC | 1270 nM
CN(C(=O)C1(c2ccc(Cl)cc2)CC1)C1CCN(CCCCCNC(=O)/C=C/c2ccc(Cl)c(Cl)c2)CC1 | 770 nM
CCc1ccccc1N1CCN(CCCCNC(=O)c2ccc(NC(=O)c3ccc(Cl)cc3)cc2)CC1 | 960 nM
COc1cc(CNC[C@@H](O)[C@H](Cc2ccccc2)NC(=O)c2cc(OC(C)C)cc(N3CCCCS3(=O)=O)c2)cc(OC)c1 | 590 nM

Structure (SMILES) | IC50
CN1CCN(c2nc(NCCc3ccc(O)cc3)nc(NCc3ccccc3-c3ccc(C(F)(F)F)cc3)n2)CC1 | 970 nM
CC(=O)Nc1ncc(C(=O)Nc2ccc(-c3cccc(-c4nc5ccc(C(F)(F)F)cc5[nH]4)c3)cc2)s1 | 260 nM
NC(N)=Nc1nc(-c2cccc(NC(=O)NCc3cccc4ccccc34)c2)cs1 | 840 nM
COc1ccc2nccc([C@@H](O)CN3CCC(NC(=O)c4cc5c(F)cc(F)cc5[nH]4)CC3)c2c1 | 240 nM
COc1ccc(-c2cc(C(=O)N[C@@H](CC3CCCCC3)C(=O)NC3CCCc4ccccc43)ccc2O)cc1 (stereo not given in full) | 690 nM
O=C(NCCCCN1CCC(c2cccc3ccccc23)CC1)c1ccc(-c2ccc(C(F)(F)F)cn2)cc1 | 870 nM
COc1ccc2nc3cc(Cl)ccc3c(Nc3ccc(O)c(CNC(C)C)c3)c2c1 | 140 nM
Cc1occc1C(=O)Nc1nc(-c2ccccn2)nc2ccsc12 | 900 nM
COCCN(C)CCCOc1cc2c(cc1OC)ncn2-c1cc(OCc2ccccc2C(F)(F)F)c(C(N)=O)s1 | 710 nM
Fc1ccc2nc(-c3cccc(-c4ccc(CN5CCN(c6cnccn6)CC5)cc4)c3)[nH]c2c1 | 890 nM
CN1CCN(CCCN(Cc2ccc(-c3cccc(CNCc4ccc5c(c4)OCO5)c3)cc2)C(=O)Nc2ccccc2)CC1 | 180 nM
Cc1ccc2nc(C)cc(NN=Cc3ccccc3F)c2c1 | 170 nM
CN1CCC(NCc2ccc(-c3ccc(S(=O)(=O)NC4CCC4)s3)cc2)CC1 | 850 nM
COc1ccc2nccc([C@@H](O)CN3CCC(NCc4cc5oc(=O)[nH]c5cc4Cl)CC3)c2c1 | 380 nM
Cc1cccc2[nH]c(-c3cccc(-c4cccc(NC(=O)Nc5ccccc5)c4)c3)nc12 | 140 nM
COc1ccc2nccc(N3CCC(CCNCc4ccc5c(n4)NC(=O)CS5)CC3)c2c1 | 210 nM
CCc1c(CCNCCCC(C)CCNCCc2ccc(OC)c(OC)c2CC)ccc(OC)c1OC (stereo not given) | 1110 nM
CCOC(=O)c1c(NC(=O)c2ccccc2)sc2c(O)c(CN(CC)CC)ccc12 | 970 nM
O=C(Nc1cccc(C2=NCCCN2)c1)Nc1cccc(C2=NCCCN2)c1 | 560 nM
CCOc1ccc(-c2nonc2NC(=O)c2ccccc2Cl)cc1OCC | 740 nM
O=C([C@H]1C[C@@H]1c1ccccc1)N(Cc1ccc(-c2ccc(CNCCc3ccccc3)cc2)cc1)C1CCNCC1 | 1110 nM
CCOc1cc(NCCSCc2nc[nH]c2C)nc2ccccc12 | 790 nM
O=C(c1cc(C(=O)Nc2ccccc2F)c(=O)n(-c2ccccc2F)c1)c1cc(Cl)ccc1O | 710 nM
O=C(Cc1cccc2ccccc12)NC1CCN(c2ccnc3cc(Cl)ccc23)C1 (stereo not given) | 250 nM

Structure (SMILES) | IC50
CCOC(=O)c1ccc(NC(=O)N[C@@H](Cc2ccccc2)C(=O)NC2CCN(Cc3ccc(O)c(OC)c3)C2)cc1 (stereo not given in full) | 990 nM
COc1cccc(C(O)CNc2ccnc(Nc3cccc(-c4csc(C)n4)c3)n2)c1 (stereo not given) | 790 nM
S=C(NCCc1ccccc1)Nc1ccc2ncsc2c1 | 1400 nM
Cc1ccccc1C1CCN(c2ncc(C(=O)NC3CC3)cc2Cl)CC1 | 700 nM
CC1CCCN(Cc2c(O)ccc3c(=O)c(-c4nc5ccccc5s4)c(N)oc23)C1 (stereo not given) | 140 nM
O=C(NCCCN1CCC(NC(=O)c2ccc(-c3cccnc3)cc2)CC1)c1ccc(Cl)c(Cl)c1 | 850 nM
O=C(Nc1ccc(CCNC2=NCCN2)cc1)Nc1ccc(CCNC2=NCCN2)cc1 | 790 nM
Cc1c(CN2CCCCC2)cccc1OCCCNc1nc(NCCc2ccc(O)cc2)nc(N2CCNCC2)n1 | 220 nM
O=C(NC(c1ccc(Cl)cc1)c1ccc2cccnc2c1O)c1ccccc1 (stereo not given) | 560 nM
Cc1cc(C(=O)CN2C(=O)NC3(CCCc4ccccc43)C2=O)c(C)n1Cc1ccc(F)cc1 (stereo not given) | 970 nM
COc1ccc(N2CCN(CCc3ccc(NC(=O)c4ccc([N+](=O)[O-])cc4)cc3)CC2)c(OC)c1 | 1170 nM
Cc1cc(N[C@@H](CC(C)C)C(=O)NCCc2ccccc2)nc(NCc2ccccc2C)n1 | 910 nM
COc1cccc(-c2csc(C(=O)NC3CCCCN(Cc4ccc(C(C)(C)C)cc4)C3)c2)c1 (stereo not given) | 890 nM
OC(CNc1ccnc(Nc2ccc(Cl)cc2)n1)c1ccccc1C(F)(F)F (stereo not given) | 790 nM
COc1ccccc1NC(=O)Nc1cccc(-c2cccc(-c3nc4ccc(C(F)(F)F)cc4[nH]3)c2)c1 | 120 nM
O=C(Nc1ccccc1C(F)(F)F)NC1CCC(CN2CCC(c3c[nH]c4ccccc34)CC2)CC1 (stereo not given) | 950 nM and 780 nM
COc1ccc2ccccc2c1CNCCCCCCNCc1c(OC)ccc2ccccc12 | 710 nM
Cc1ccc(Cl)c2sc(N3CCN(C(=O)c4ccc([N+](=O)[O-])o4)CC3)nc12 | 320 nM
Fc1ccc2nc(-c3cccc(-c4cccc(CN5CCN(c6ccncc6)CC5)c4)c3)[nH]c2c1 | 150 nM
CCN1CCN(c2ccc(NC(=O)c3cc4c(C)nn(-c5ccccc5)c4s3)cc2C)CC1 | 760 nM
COc1ccc2nccc([C@@H](O)CN3CCC(NC(=O)C(=Cc4ccc(C#N)cc4)c4ccc(-c5ccccc5)cc4)CC3)c2c1 | 740 nM
CCCNCc1ccc(-c2ccc(CN(CCOC)C(=O)c3nn(-c4ccccc4)nc3C)cc2)nc1 | 730 nM
Cc1ccc(CNC(=O)c2cc3c(=O)n4cccc(C)c4nc3n(CCN3CCOCC3)c2=N)cc1 | 850 nM
